In article PMC9150102 (Journal of Medicinal Chemistry, 2022):
Read-outs that look alike come from different tables or passages of the source.

What was measured:
SERCA2a = biological target: T1, SERCA2a (Cavia porcellus, UniProt A0A286XFU8); test: SERCA2a ATPase activity, Ca2+ dependency in cardiac SR microsomes from healthy guinea pigs; type: biochemical, guinea pig; conditions: for SERCA2a–Ca2+ affinity (KdCa) modulation (words): 10 and 100 nM, healthy guinea pig SR preparations
T1 construct: from tissue; host or cells: guinea pig left ventricle, SR-enriched microsomes
T1 sequence (A0A286XFU8 entry or part of it): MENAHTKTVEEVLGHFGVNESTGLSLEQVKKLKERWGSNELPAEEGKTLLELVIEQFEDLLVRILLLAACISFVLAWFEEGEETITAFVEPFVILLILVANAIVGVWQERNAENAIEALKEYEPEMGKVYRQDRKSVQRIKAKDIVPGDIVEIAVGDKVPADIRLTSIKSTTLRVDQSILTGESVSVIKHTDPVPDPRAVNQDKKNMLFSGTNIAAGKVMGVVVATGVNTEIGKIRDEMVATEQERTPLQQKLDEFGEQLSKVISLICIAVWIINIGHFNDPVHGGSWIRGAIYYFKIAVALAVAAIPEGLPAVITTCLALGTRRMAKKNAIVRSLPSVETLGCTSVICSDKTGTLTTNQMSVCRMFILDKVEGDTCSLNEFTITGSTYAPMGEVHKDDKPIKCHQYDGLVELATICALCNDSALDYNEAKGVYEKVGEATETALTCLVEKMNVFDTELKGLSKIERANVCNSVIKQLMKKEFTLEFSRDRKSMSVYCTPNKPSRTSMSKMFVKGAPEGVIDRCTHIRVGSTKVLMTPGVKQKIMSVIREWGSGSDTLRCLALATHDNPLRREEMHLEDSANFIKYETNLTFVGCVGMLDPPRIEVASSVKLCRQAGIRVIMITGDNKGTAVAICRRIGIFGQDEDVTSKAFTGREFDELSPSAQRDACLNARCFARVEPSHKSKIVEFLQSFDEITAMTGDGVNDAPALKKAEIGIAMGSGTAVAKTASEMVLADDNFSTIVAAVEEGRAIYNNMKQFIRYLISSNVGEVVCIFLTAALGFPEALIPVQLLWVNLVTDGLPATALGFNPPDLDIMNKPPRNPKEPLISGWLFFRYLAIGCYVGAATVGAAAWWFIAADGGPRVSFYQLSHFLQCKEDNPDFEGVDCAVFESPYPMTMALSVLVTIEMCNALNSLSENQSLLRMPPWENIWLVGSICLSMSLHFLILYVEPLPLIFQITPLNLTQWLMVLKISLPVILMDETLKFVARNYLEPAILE
Description: SERCA2a ATPase activity was assessed in SR preparations from healthy guinea pig hearts. Ca^2+ dependency of ATPase activity was measured, and kinetic parameters (KdCa and Vmax) were estimated at compound concentrations of 10 and 100 nM.
[…] […] Data are the mean ± SEM. *p < 0.05 (one-way RM ANOVA plus post hoc Tukey’s multiple comparisons or paired t-test).
Measurements were performed in cardiac SR microsomes (guinea pig) and in whole tissue homogenates (rat). Cardiac preparations included SERCA2a and PLN. To test for PLN involvement in the effect of compounds, SERCA1 activity was measured in PLN-free microsomes (from guinea pig skeletal muscle) before and after reconstitution with the synthetic PLN1–32 inhibitory fragment at a ratio of 300:1 for PLN/SERCA. […] Either an increase in Vmax (rat) or a decrease in KdCa (increased Ca^2+ affinity) (guinea pig) stands for enhancement of SERCA function. […]
Left ventricles (LV) were dissected from rat and guinea -pig of healthy and failing preparations and frozen until use. Tissues were homogenized, subjected to centrifugation to obtain SR -enriched microsomes and sarcomeric proteins were extracted, as previously described 4.
(§1) In the case of guinea-pig hearts, LV tissues were homogenized in 4 volumes of 10 mM NaHCO3, 1 mM PMSF, 10 μg/ml aprotinin and leupeptin (pH 7) and centrifuged at 12,000g for 15 minutes. Supernatants were filtered and centrifuged at 100,000 g for 30 min. Contractile proteins were extracted by suspending the pellets with 0.6 M KCl, 30 mM histidine, pH 7 and further centrifugation at 100,000 g for 30 min.
(§2) Final pellets were reconstituted with 0.3 M sucrose, 30 mM histidine, pH 7, to obtain SR-enriched […]
SERCA2a ATPase activity was measured as the rate of 32P-ATP release at multiple Ca2+ concentrations (100-2000 nM) in the absence and presence of tested compounds, as previously described5. Increasing concentrations of each compound were pre-incubated with 2 μg of cardiac preparations for 5 min at 4° C in 80 μl of a solution containing 100 mM KCl, 5 mM MgCl2, 1 μM A23187, 20 mM Tris, pH 7.5. Then, 20 μl of 5 mM Tris-ATP containing 50 nCi of 32P-ATP (3-10 Ci/mmol, Perkin Elmer) were added. The ATP hydrolysis was continued for 15 min at 37°C and the reaction was stopped by acidification with 100 μl of 20% ice-cold perchloric acid. 32P was separated by centrifugation with activated charcoal (Norit A, Serva) and the radioactivity was measured. SERCA2a-dependent ATPase activity was identified as the portion of total hydrolytic activity inhibited by cyclopiazonic acid (CPA, 10 µM). Technical replicates were used to ensure the reliability of single values. […]

[1] = biological target: T2, Na^+/K^+ ATPase-alpha1 isoform purified from dog kidneys (Canis lupus familiaris, UniProt P50997); test: Na+/K+ ATPase activity inhibition, purified dog kidney enzyme (32P-ATP hydrolysis); type: biochemical
T2 construct: excised from 1–3-year-old male beagle dogs; from tissue; host or cells: dog (beagle) kidney outer medulla, Jørgensen purification
Description: Compounds were tested in a concentration range from 10^–9 to 10^–4 M on a purified renal Na^+/K^+ ATPase preparation with a specific activity of 14 μmol/min/mg protein.
Figure 2 Na^+/K^+ ATPase activity inhibition in a dog purified enzyme preparation. All compounds were tested in a concentration range from 10^–9 to 10^–4 M in comparison to ouabain.
The inhibitory effect of compounds was tested at multiple concentrations on Na^+/K^+ ATPase-alpha1 isoform purified from dog kidneys. […]
Renal Na+/K+ ATPase purification and activity
Purification of renal Na+/K+ ATPase was performed according to the method of Jørgensen2. Kidneys were excised from 1–3-year-old male beagle dogs, obtained from the General Pharmacology Department of Sigma-tau, Pomezia, Italy, under pentobarbital anesthesia. Kidneys were sliced and the outer medulla was dissected, pooled and suspended (1g in 10 ml) in a sucrose-histidine solution, containing 250 mM sucrose, 30 mM histidine and 5 mM EDTA, pH 7.2 and homogenized. The homogenate was centrifuged at 6,000 g for 15 min, the supernatant was decanted and centrifuged at 48,000 g for 30 min. The pellet was suspended in the sucrose-histidine buffer and incubated for 20 min with a sodium-dodecyl-sulphate (SDS) solution, dissolved in a gradient buffer, containing 25 mM imidazole and 1 mM EDTA, pH 7.5. The sample was layered on the top of a sucrose discontinuous gradient (10, 15 and 29.4%) and centrifuged at 60,000 g for 115 min. The final pellet was suspended in the gradient buffer.
Na+/K+ ATPase activity was assayed by measuring 32P-ATP hydrolysis, as previously described3.
Increasing concentrations of the standard ouabain, or tested compound, were incubated with 0.3 μg of purified dog kidney enzyme for 10 min at 37°C in 120 μl final volume of a medium, containing 140 mM NaCl, 3 mM MgCl2, 50 mM Hepes-Tris, 3 mM ATP, pH 7.5. Then, 10 μl of incubation solution containing 10 mM KCl and 20 nCi of 32P-ATP (3-10 Ci/mmol, Perkin Elmer) were added, the reaction continued for 15 min at 37°C and was stopped by acidification with 20% ice-cold perchloric acid.
32P was separated by centrifugation with activated Charcoal (Norit A, Serva) and the radioactivity was measured. Effects of increasing concentrations of the tested compound were compared to ouabain, as positive standard, and to vehicle (control) at 37°C. The inhibitory activity was expressed as percent of activity in control. The concentration of compound causing 50% inhibition of the Na+/K+ ATPase activity (IC50) was calculated by non-linear fitting of data points (KaleidagraphTM, Sinergy Software). […]

[2] = Acute toxicity (LD50) in mice; conditions: male, Albino Swiss CD-1, mouse, in vivo, po
Description: Acute toxicity (LD50) was preliminarily evaluated in mice following i.v. and oral drug administration.
Control animals received the vehicle only.
Drug toxicity studies in mice
Acute toxicity was determined in CD1 mice. Separate mice groups were either orally treated, or
intravenously injected, with increasing doses of the tested substance to identify the dose causing 50%
mortality (LD50). Acute mortality was assessed at 30 min after compound administration; survival was

[3] = cited from earlier work
[4] = biological target: T2, Na^+/K^+ ATPase-alpha1 isoform purified from dog kidneys; design: method as in PMID 36153005; conditions: cited from earlier work
Albino Swiss CD-1 mice = test system: Albino Swiss CD-1 mice; design: method as in PMID 36153005; conditions: i.v. administration; cited from earlier work
STZ diabetic rats = test system: STZ diabetic rats; design: method as in PMID 36153005; conditions: cited from earlier work
[5] = test system: SERCA1 reconstituted with PLN1–32 fragment; test: SERCA1 ATPase activity after reconstitution with PLN1-32 fragment; type: biochemical, guinea pig; conditions: PLN/SERCA 300:1
Description: Data are the mean ± SEM. *p < 0.05 (one-way RM ANOVA plus post hoc Tukey’s multiple comparisons or paired t-test).
Measurements were performed in cardiac SR microsomes (guinea pig) and in whole tissue homogenates (rat). Cardiac preparations included SERCA2a and PLN. To test for PLN involvement in the effect of compounds, SERCA1 activity was measured in PLN-free microsomes (from guinea pig skeletal muscle) before and after reconstitution with the synthetic PLN1–32 inhibitory fragment at a ratio of 300:1 for PLN/SERCA. […] Either an increase in Vmax (rat) or a decrease in KdCa (increased Ca^2+ affinity) (guinea pig) stands for enhancement of SERCA function.
(rats). As verified by Western blot, cardiac microsomes preparations included SERCA2a and PLN and skeletal muscle ones included SERCA1 only.
SERCA stimulation4, compounds were also tested on SERCA1 in microsomes of guinea-pig skeletal muscle (PLN-free) before and after reconstitution with the PLN1-32 inhibitory fragment at a ratio of 300:1 […]
Tissues were homogenized, subjected to centrifugation to obtain SR -enriched microsomes and sarcomeric proteins were extracted, as previously described 4.
as §1, §2
SERCA2a ATPase activity was measured as the rate of 32P-ATP release at multiple Ca2+ concentrations (100-2000 nM) in the absence and presence of tested compounds, as previously described5. Increasing concentrations of each compound were pre-incubated with 2 μg of cardiac preparations for 5 min at 4° C in 80 μl of a solution containing 100 mM KCl, 5 mM MgCl2, 1 μM A23187, 20 mM Tris, pH 7.5. Then, 20 μl of 5 mM Tris-ATP containing 50 nCi of 32P-ATP (3-10 Ci/mmol, Perkin Elmer) were added. The ATP hydrolysis was continued for 15 min at 37°C and the reaction was stopped by acidification with 100 μl of 20% ice-cold perchloric acid. 32P was separated by centrifugation with activated charcoal (Norit A, Serva) and the radioactivity was measured. SERCA2a-dependent ATPase activity was identified as the portion of total hydrolytic activity inhibited by cyclopiazonic acid (CPA, 10 µM). Technical replicates were used to ensure the reliability of single values.
Reconstitution of SERCA1 with PLN1-32 synthetic fragment
Adult healthy male guinea-pigs were used to prepare SERCA1-enriched SR microsomes from fast-twitch hind leg muscles. Microsomes were prepared as described for SERCA2a preparations. For reconstitution experiments, SERCA1 (PLN-free) was pre-incubated with synthetic PLN1-32 fragment (canine sequence, Biomatik Corporation, Canada) in 20 mM imidazole, pH 7, at 1:300 SERCA1:PLN ratio for 30 min at room temperature. After pre-incubation, SERCA1 (PLN-free) alone, or reconstituted with PLN1-32 […]
fragment, was utilized for SERCA activity measurement by using 32P-ATP hydrolysis method at different

[6] = biological target: skeletal SERCA1 (sarcoplasmic reticulum calcium ATPase 1) (guinea pig (endogenous in skeletal muscle))
[7] = read-out: NKA Inhibition (IC50 µM)

C[C@]12CC/C(=C\CCC(=O)O)C[C@@H]1[C@@H](O)C[C@@H]1[C@@H]2CC[C@]2(C)C(=O)CC[C@@H]12 [Compound 1]
SERCA2a Stimulation @100 nM (DELTA% KdCa) (SERCA2a; 100 nM): -15% | SERCA2a KdCa reduced by (SERCA2a; 100 nM, guinea pig preparation): 15% | IC50 [1]: > 100 µM

CCOC(=O)C[C@H]1CC[C@@]2(C)[C@H](C1)[C@@H](O)C[C@@H]1[C@@H]2CC[C@]2(C)C(=O)CC[C@@H]12 [Compound 10]
SERCA2a Stimulation @100 nM (DELTA% KdCa) (SERCA2a; 100 nM): -26% | IC50 [1]: > 100 µM

C[C@]12CC/C(=C/CCC(=O)O)C[C@@H]1[C@H](O)C[C@@H]1[C@@H]2CC[C@]2(C)C(=O)CC[C@@H]12 [Compound 4]
SERCA2a–Ca2+ affinity (KdCa) modulation (words) (SERCA2a): inactive | IC50 [1]: > 100 µM

CCOC(=O)CCCCC[C@H]1CC[C@@]2(C)[C@H](C1)[C@@H](O)C[C@@H]1[C@@H]2CC[C@]2(C)C(=O)CC[C@@H]12 [Compound 12]
SERCA2a–Ca2+ affinity (KdCa) modulation (words) (SERCA2a): slightly less active | IC50 [1, 7]: > 100 µM

CCOC(=O)CCC[C@H]1CC[C@@]2(C)[C@H](C1)[C@@H](O)C[C@@H]1[C@@H]2CC[C@]2(C)C(=O)CC[C@@H]12 [Compound 7]
SERCA2a Stimulation @100 nM (DELTA% KdCa) (SERCA2a; 100 nM): -23% | IC50 [1, 7]: > 100 µM

C[C@]12CC[C@H](CC(=O)O)C[C@@H]1[C@H](O)C[C@@H]1[C@@H]2CC[C@]2(C)C(=O)CC[C@@H]12 [Compound 9]
SERCA2a–Ca2+ affinity (KdCa) modulation (words) (SERCA2a): inactive

C[C@]12CCC(=NOCCN)C[C@@H]1C(=O)C[C@@H]1[C@@H]2CC[C@]2(C)C(=O)CC[C@@H]12 (mixture of isomers) [istaroxime]
LD50 at 24 h [2]: 200 mg/kg | half-life [3]: ~1 h | IC50 ([4]; dog renal preparations): 0.14 µM | LD50 (Albino Swiss CD-1 mice): 23 mg/kg

C[C@]12CC/C(=N\OCC(=O)O)C[C@@H]1[C@H](O)C[C@@H]1[C@@H]2CC[C@]2(C)C(=O)CC[C@@H]12 [PST3093, reference compound]
LD50 at 24 h [2]: > 200 mg/kg | half-life [3]: ~10 h | systolic indexes (STZ diabetic rats): improved systolic indexes | activity against Na+/K+ ATPase [4]: inactive | SERCA2a KdCa reduced by (SERCA2a; 1 nM): 18% | SERCA2a KdCa change (SERCA2a; 100 nM, guinea pig microsomal preparations): −25% | SERCA2a KdCa reduced by (SERCA2a; 100 nM, guinea pig preparation): 25%

C[C@]12CC[C@H](CCCC(=O)O)C[C@@H]1[C@H](O)C[C@@H]1[C@@H]2CC[C@]2(C)C(=O)CC[C@@H]12 [Compound 6]
SERCA2a Stimulation @100 nM (DELTA% KdCa) (SERCA2a; 100 nM): -23% | IC50 [1]: > 100 µM

PLN1–32 fragment: synthetic PLN1-32 inhibitory fragment of phospholamban (canine sequence, Biomatik) (MEKVQYLTRSAIRRASTIEMPQQARQKLQNLF) [reference compound]
SERCA1 KdCa increased by (reconstitution with PLN1–32) [5]: 23–25%

synthetic PLN(1-32) inhibitory fragment of phospholamban (from UniProt P26678 1-32) (peptide)
increase of KdCa (Ca2+ dependency of SERCA1 ATPase activity, 32P-ATP, 37 °C) after reconstitution of skeletal muscle microsomes with PLN(1-32) at 300:1 PLN/SERCA; Vmax not affected [6]: 23 to 25%

C[C@]12CC/C(=C/CCC(=O)O)C[C@@H]1[C@@H](O)C[C@@H]1[C@@H]2CC[C@]2(C)C(=O)CC[C@@H]12 [Compound 2]
SERCA2a–Ca2+ affinity (KdCa) modulation (words) (SERCA2a): inactive | IC50 [1]: > 100 µM

C[C@]12CC/C(=C\CCC(=O)O)C[C@@H]1[C@H](O)C[C@@H]1[C@@H]2CC[C@]2(C)C(=O)CC[C@@H]12 [Compound 3]
SERCA2a–Ca2+ affinity (KdCa) modulation (words) (SERCA2a): inactive | SERCA2a–Ca2+ affinity (KdCa) modulation (words) (SERCA2a; listed as compound 3): only a trend to SERCA2a KdCa reduction

C[C@]12CC[C@H](CCCCCC(=O)O)C[C@@H]1[C@@H](O)C[C@@H]1[C@@H]2CC[C@]2(C)C(=O)CC[C@@H]12 [Compound 11]
SERCA2a Stimulation @100 nM (DELTA% KdCa) (SERCA2a; 100 nM): -20% | SERCA2a–Ca2+ affinity (KdCa) modulation (words) (SERCA2a): slightly less active | IC50 [1, 7]: > 100 µM
